The values below come from ChEMBL document CHEMBL1201862, “PubChem BioAssay data set” (2004).

Holding throughout (test): NCI tumour cell line growth inhibition, 48 h
In test [1] the test system is HOP-62.
Test [2] concerns CCRF-CEM.
Test [3] relates to SK-OV-3.
Test [4] has as its system Hs-578T.
Test [5] has as its system IGROV-1.
Test [6] concerns A549.
The subject of test [7] is NCI-H460.
The test system of test [8] is M14.
Test [9] deals with HT-29.
For test [10], the system named is SF-539.
Test [11] concerns RPMI-8226.
In test [12] the test system is MDA-MB-435.
The test system of test [13] is SNB-19.
Test [14] deals with UACC-62.
The test system of test [15] is MCF7.
Test [16] concerns Malme-3M.
Test [17] relates to 786-0.
Test [18] concerns MDA-N.
The test system of test [19] is SK-MEL-5.
In test [20] the test system is KM-20L2.

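Five concentrations, 48 hours, 96-well plates. GI50 is the concentration that inhibits growth by half.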 The source made the active and inactive calls. No stated cut-off is given here; in the data, active = GI50 up to about 1.1 µM and inactive = higher.

As to `NC1(C(=O)OCc2ccccc2)CCCC1`, the GI50 was 18.8 µM (inactive) in test [1]; 11.4 µM (inactive) in test [2]; 21.9 µM (inactive) in test [3]; 23.7 µM (inactive) in test [4]; 18.5 µM (inactive) in [5]; 28.8 µM (inactive) in test [6]. The GI50 in [7] was 43.3 µM (inactive); in [8], 14.5 µM (inactive); in [9] it was 37.8 µM (inactive); in test [10], 11.2 µM (inactive); in test [11], 14.2 µM (inactive); in [12], 15.1 µM (inactive). The GI50 in test [13] was 21.2 µM (inactive); in test [14] it was 15.9 µM (inactive); in test [15], 25.1 µM (inactive); in test [16], 16.5 µM (inactive); in test [17] it was 18 µM (inactive); in [18], 20.1 µM (inactive). In addition, the GI50 in test [19] was 16.6 µM (inactive).

On to `COC1/C(=C\C(C)=O)c2ccccc2N1C(C)=O` (stereo not drawn), for which the GI50 in test [1], in [2], in test [3], in test [5], in [6] and in test [7] was > 100 µM (inactive) each time. Also, the GI50 in [8], in test [9], in [10], in test [11], in test [20] and in test [13] was > 100 µM (inactive) each time. The GI50 in [14] and in [17] was > 100 µM (inactive) each time.

For `COc1ccc2c(c1)[n+]([O-])c(C(N)=O)c(N)[n+]2[O-]`, the GI50 in test [1] is > 100 µM (inactive); in test [3] it was > 100 µM (inactive); in test [5], 75.7 µM (inactive); in [6], > 100 µM (inactive); in test [7], 54.6 µM (inactive); in test [8], 75.5 µM (inactive). In addition, the GI50 is 61.9 µM (inactive) in [9]; > 100 µM (inactive) in [10]; > 100 µM (inactive) in test [11]; 37.2 µM (inactive) in [20]; > 100 µM (inactive) in [13]; > 100 µM (inactive) in test [16]. Further, the GI50 in test [17] was 93.1 µM (inactive); in test [19], 40.1 µM (inactive).

Consider `Brc1ccc(/N=C/C=C(\Nc2ccc(Br)cc2)C23CC4CC(CC(C4)C2)C3)cc1`, for which the GI50 was 19.1 µM (inactive) in test [1]; 1.63 µM (inactive) in test [2]; 18.6 µM (inactive) in test [3]; 27.4 µM (inactive) in test [4]; 11.3 µM (inactive) in test [5]; 22.5 µM (inactive) in [6]. The GI50 in test [7] is 6.12 µM (inactive); in [8], 9.75 µM (inactive); in test [9] it was 18 µM (inactive); in test [10], 20 µM (inactive); in test [11], 14.7 µM (inactive); in test [12] it was 5.11 µM (inactive). Also, the GI50 is 29.6 µM (inactive) in [13]; 1.17 µM (inactive) in test [14]; 11 µM (inactive) in test [15]; 19.1 µM (inactive) in [16]; 13.9 µM (inactive) in [17]; 12.4 µM (inactive) in test [18]. Also, the GI50 in test [19] was 9.33 µM (inactive).

As to `COc1ccc(Br)c(CCCCC(=O)O)c1`, the GI50 in test [1], in test [2], in [3], in test [5], in [6] and in [7] was > 100 µM (inactive) in each case. Also, the GI50 in test [8], in [9], in [10], in [11], in test [20] and in test [13] was > 100 µM (inactive) each time. Moreover, the GI50 in test [14], in test [17] and in test [19] was > 100 µM (inactive) in each case.

Regarding `O=C(CC1(O)C(=O)Nc2ccccc21)c1ccco1` (stereo not drawn), the GI50 in test [1], in test [3], in [5], in test [6], in test [7] and in [8] was > 100 µM (inactive) throughout. In addition, the GI50 in [9], in test [10], in test [11], in test [20], in test [13] and in [14] was > 100 µM (inactive) each time. Further, the GI50 in [16], in test [17] and in test [19] was > 100 µM (inactive) each time.

As for `COc1ccc(NC(=O)CC(=O)n2nc(-c3ccccc3)c(/N=N/c3ccccc3C(=O)O)c2-c2ccccc2)cc1`, the GI50 was 30.1 µM (inactive) in [1]; > 100 µM (inactive) in test [2]; 15.9 µM (inactive) in [3]; 83.4 µM (inactive) in test [5]; > 100 µM (inactive) in [6]; 55.1 µM (inactive) in test [10]. The GI50 in test [11] was > 100 µM (inactive); in [20] it was > 100 µM (inactive); in [13] it was 63 µM (inactive); in [14], > 100 µM (inactive); in test [17], 21.9 µM (inactive); in test [19], > 100 µM (inactive).

As for `C=C1c2nc3ccccc3n2C=C(c2ccc(C)cc2)N1c1ccc(C)cc1`, the GI50 in test [1] is > 100 µM (inactive); in test [2] it was 33 µM (inactive); in [3] it was > 100 µM (inactive); in [4], > 100 µM (inactive); in [5], > 67.1 µM (inactive); in [6], 52.6 µM (inactive). For the same compound, the GI50 was 42.3 µM (inactive) in test [7]; 56.1 µM (inactive) in test [8]; 37.9 µM (inactive) in test [9]; > 48.1 µM (inactive) in test [10]; 21.4 µM (inactive) in test [11]; 11.6 µM (inactive) in test [12]. The GI50 was > 100 µM (inactive) in test [13]; > 83.8 µM (inactive) in [14]; 26.2 µM (inactive) in test [15]; > 63.2 µM (inactive) in test [16]; 78.3 µM (inactive) in test [17]; 20.6 µM (inactive) in test [18]. Moreover, the GI50 in test [19] is 19.8 µM (inactive).

Consider `Clc1ccc(CSCCc2ccncc2)cc1Cl`, for which the GI50 in test [1] was 22.6 µM (inactive); in test [2], 20.6 µM (inactive); in [3], 27.8 µM (inactive); in test [4] it was 23.4 µM (inactive); in test [5] it was 20.8 µM (inactive); in [6], 28.1 µM (inactive). In addition, the GI50 in [7] is 31.8 µM (inactive); in [8] it was 17.2 µM (inactive); in test [9], 15.7 µM (inactive); in test [10], 17 µM (inactive); in test [11], 14.6 µM (inactive); in test [12], 22.6 µM (inactive). Moreover, the GI50 in [13] is 17.8 µM (inactive); in test [14] it was 15.3 µM (inactive); in test [15], 19.5 µM (inactive); in test [16] it was 21 µM (inactive); in [17], 17.2 µM (inactive); in test [18], 20.2 µM (inactive). Further, in test [19], the GI50 is 16.3 µM (inactive).

In the case of `C/C(=N\Nc1nc2ccccc2s1)c1cc(C)ncn1`, the GI50 was 1.34 µM (inactive) in test [1]; 0.0929 µM (active) in [2]; 1.28 µM (inactive) in test [3]; 0.738 µM (active) in [4]; 0.824 µM (active) in test [5]; 2.25 µM (inactive) in test [6]. The GI50 is 0.426 µM (active) in test [7]; 0.474 µM (active) in [8]; 0.0637 µM (active) in test [9]; 1.38 µM (inactive) in test [10]; 0.337 µM (active) in [11]; 2.81 µM (inactive) in test [12]. In addition, the GI50 in test [13] is 6.68 µM (inactive); in test [14] it was 0.979 µM (active); in test [15] it was 0.341 µM (active); in test [16], 0.372 µM (active); in [17] it was 0.507 µM (active); in test [18] it was 3.98 µM (inactive). Also, the GI50 in test [19] was 0.459 µM (active).

With `O=C1/C(=C/c2c(Cl)[nH]c3ccccc23)c2ccccc2N1c1ccccc1`, the GI50 was 4.94 µM (inactive) in test [1]; 3.9 µM (inactive) in test [2]; 2 µM (inactive) in test [3]; 3.9 µM (inactive) in test [4]; 4.39 µM (inactive) in test [5]; 5.18 µM (inactive) in test [6]. For the same compound, the GI50 in [7] was 3.59 µM (inactive); in test [8] it was 3.93 µM (inactive); in test [9] it was 3.53 µM (inactive); in test [10], 3.7 µM (inactive); in test [11], 2.92 µM (inactive); in [12], 1.64 µM (inactive). Further, the GI50 in test [13] is 9.84 µM (inactive); in [14] it was 5.65 µM (inactive); in [15], 4.02 µM (inactive); in test [16], 5.79 µM (inactive); in test [17], 6.56 µM (inactive); in [18] it was 1.85 µM (inactive). Moreover, the GI50 in [19] was 2.89 µM (inactive).

Consider `CC(C)(O)CCc1ccc(O)c2c(=O)c3c(O)c4c(cc3oc12)O[C@H]1OC=C[C@@]41O` [AUSTOCYSTIN D], for which the GI50 is 0.147 µM (active) in test [1]; 9.79 µM (inactive) in test [2]; 0.0125 µM (active) in test [3]; 10.2 µM (inactive) in [4]; < 0.01 µM (active) in [5]; 0.726 µM (active) in test [6]. Also, the GI50 in [7] is 0.0507 µM (active); in test [8], 0.411 µM (active); in [9] it was 1.24 µM (inactive); in [10] it was 0.514 µM (active); in test [11] it was 0.475 µM (active); in test [12], < 0.01 µM (active). The GI50 is 0.148 µM (active) in test [13]; < 0.01 µM (active) in [14]; < 0.01 µM (active) in test [15]; 1.08 µM (active) in test [16]; 7.06 µM (inactive) in test [17]; < 0.01 µM (active) in [18]. For the same compound, the GI50 in test [19] was 0.0102 µM (active).
